Test results as given in ChEMBL document CHEMBL3232998, “Spiromastixones A-O, antibacterial chlorodepsidones from a deep-sea-derived Spiromastix sp. fungus” (J Nat Prod, 2014).
pIC50: −log10 of the molar value. ≈ marks a conversion by molar mass, not a printed value.

Experiments:
Staphylococcus aureus [1] = assay: Antibacterial activity against Staphylococcus aureus ATCC 29213 after 18 hrs by broth microdilution method; type: functional; settings: ATCC 29213, 18 h
Bacillus thuringiensis = assay: Antibacterial activity against Bacillus thuringiensis SCSIO BT01 after 18 hrs by broth microdilution method; type: functional; settings: SCSIO BT01, 18 h
Bacillus subtilis = assay: Antibacterial activity against Bacillus subtilis SCSIO BS01 after 18 hrs by broth microdilution method; type: functional; settings: SCSIO BS01, 18 h
Escherichia coli [2] = assay: Antibacterial activity against Escherichia coli ATCC 25922 after 18 hrs by broth microdilution method; type: functional; settings: ATCC 25922, 18 h
Staphylococcus aureus [3] = assay: Antibacterial activity against methicillin-sensitive Staphylococcus aureus ATCC 29213 after 18 hrs by broth microdilution method; type: functional, organism-based; settings: ATCC 29213, 18 h, read-out: IC50
Staphylococcus aureus [4] = assay: Antibacterial activity against methicillin-resistant Staphylococcus aureus ATCC 33591 after 18 hrs by broth microdilution method; type: functional, organism-based; settings: ATCC 33591, 18 h, read-out: IC50
Staphylococcus aureus [5] = assay: Antibacterial activity against methicillin-sensitive Staphylococcus aureus 15 after 18 hrs by broth microdilution method; type: functional, organism-based; settings: Staphylococcus aureus, 15, 18 h; read-out: IC50
Staphylococcus aureus [6] = assay: Antibacterial activity against methicillin-sensitive Staphylococcus aureus 12-28 after 18 hrs by broth microdilution method; type: functional, organism-based; settings: 12-28, 18 h
Staphylococcus aureus [7] = assay: Antibacterial activity against methicillin-resistant Staphylococcus aureus 12-33 after 18 hrs by broth microdilution method; type: functional, organism-based; settings: 12-33, 18 h, read-out: IC50
[8] = system: Staphylococcus epidermidis; assay: Antibacterial activity against methicillin-sensitive Staphylococcus epidermidis ATCC 12228 after 18 hrs by broth microdilution method; type: functional, organism-based; settings: ATCC 12228, 18 h, read-out: IC50
[9] = system: Staphylococcus epidermidis; assay: Antibacterial activity against methicillin-sensitive Staphylococcus epidermidis 12-6 after 18 hrs by broth microdilution method; type: functional, organism-based; settings: 12-6, 18 h
[10] = system: Staphylococcus epidermidis; assay: Antibacterial activity against methicillin-resistant Staphylococcus epidermidis 12-8 after 18 hrs by broth microdilution method; type: functional, organism-based; settings: 12-8, 18 h, read-out: IC50
Enterococcus faecalis [11] = assay: Antibacterial activity against vancomycin-sensitive Enterococcus faecalis ATCC 29212 after 18 hrs by broth microdilution method; type: functional, organism-based; settings: ATCC 29212, 18 h, read-out: IC50
Enterococcus faecalis [12] = assay: Antibacterial activity against vancomycin-resistant Enterococcus faecalis ATCC 51299 after 18 hrs by broth microdilution method; type: functional, organism-based; settings: ATCC 51299, 18 h, read-out: IC50
Enterococcus faecalis [13] = assay: Antibacterial activity against vancomycin-sensitive Enterococcus faecalis 12-5 after 18 hrs by broth microdilution method; type: functional, organism-based; settings: 12-5, 18 h, read-out: IC50
Enterococcus faecalis [14] = assay: Antibacterial activity against vancomycin-resistant Enterococcus faecalis 09-9 after 18 hrs by broth microdilution method; type: functional, organism-based; settings: 09-9, 18 h, read-out: IC50
Enterococcus faecium [15] = assay: Antibacterial activity against vancomycin-resistant Enterococcus faecium ATCC 700221 after 18 hrs by broth microdilution method; type: functional, organism-based; settings: ATCC 700221, 18 h, read-out: IC50
Enterococcus faecium [16] = assay: Antibacterial activity against vancomycin-resistant Enterococcus faecium 12-1 after 18 hrs by broth microdilution method; type: functional, organism-based; settings: 12-1, 18 h, read-out: IC50
Enterococcus faecium [17] = assay: Antibacterial activity against vancomycin-sensitive Enterococcus faecium 12-3 after 18 hrs by broth microdilution method; type: functional, organism-based; settings: 12-3, 18 h, read-out: IC50
Escherichia coli [18] = assay: Antibacterial activity against extended spectrum beta-lactamase-deficient Escherichia coli ATCC 25922 after 18 hrs by broth microdilution method; type: functional, organism-based; settings: ATCC 25922, 18 h, read-out: IC50
Escherichia coli [19] = assay: Antibacterial activity against extended spectrum beta-lactamase-deficient Escherichia coli 1515 after 18 hrs by broth microdilution method; type: functional, organism-based; settings: Escherichia coli, 1515, 18 h
Escherichia coli [20] = assay: Antibacterial activity against extended spectrum beta-lactamase-deficient Escherichia coli 12-14 after 18 hrs by broth microdilution method; type: functional, organism-based; settings: 12-14, 18 h, read-out: IC50
Escherichia coli [21] = assay: Antibacterial activity against extended spectrum beta-lactamase producing Escherichia coli 12-15 after 18 hrs by broth microdilution method; type: functional, organism-based; settings: 12-15, 18 h, read-out: IC50
Klebsiella pneumoniae [22] = assay: Antibacterial activity against extended spectrum beta-lactamase producing Klebsiella pneumoniae ATCC 700603 after 18 hrs by broth microdilution method; type: functional, organism-based; settings: ATCC 700603, 18 h
Klebsiella pneumoniae [23] = assay: Antibacterial activity against extended spectrum beta-lactamase-deficient Klebsiella pneumoniae 7 after 18 hrs by broth microdilution method; type: functional, organism-based; settings: Klebsiella pneumoniae, 7, 18 h; read-out: IC50
Klebsiella pneumoniae [24] = assay: Antibacterial activity against NDM-1 producing Klebsiella pneumoniae ATCC BAA-2146 after 18 hrs by broth microdilution method; type: functional, organism-based; settings: ATCC BAA-2146, 18 h, read-out: IC50
Klebsiella pneumoniae [25] = assay: Antibacterial activity against extended spectrum beta-lactamase-deficient Klebsiella pneumoniae 12-4 after 18 hrs by broth microdilution method; type: functional, organism-based; settings: 12-4, 18 h
Klebsiella pneumoniae [26] = assay: Antibacterial activity against extended spectrum beta-lactamase producing Klebsiella pneumoniae 12-8 after 18 hrs by broth microdilution method; type: functional, organism-based; settings: 12-8, 18 h, read-out: IC50
Staphylococcus aureus [27] = assay: Ratio of levofloxacin IC50 to compound IC50 for methicillin-resistant Staphylococcus aureus 12-33 after 18 hrs by broth microdilution method; type: functional

Compound | MIC (Staphylococcus aureus [1]) [µg/mL] | MIC (Bacillus thuringiensis) [µg/mL] | MIC (Bacillus subtilis) [µg/mL] | MIC (Escherichia coli [2]) [µg/mL] | MIC (Staphylococcus aureus [3]) [µM] | MIC (Staphylococcus aureus [4]) [µM] | MIC (Staphylococcus aureus [5]) [µM] | pIC50 (Staphylococcus aureus [6]) | MIC (Staphylococcus aureus [7]) [µM] | MIC [8] [µM] | pIC50 [9] | MIC [10] [µM] | MIC (Enterococcus faecalis [11]) [µM] | MIC (Enterococcus faecalis [12]) [µM] | MIC (Enterococcus faecalis [13]) [µM] | MIC (Enterococcus faecalis [14]) [µM] | MIC (Enterococcus faecium [15]) [µM] | MIC (Enterococcus faecium [16]) [µM] | MIC (Enterococcus faecium [17]) [µM] | MIC (Escherichia coli [18]) [µM] | also measured
CCCc1cc(O)cc2c1Oc1cc(O)cc(CCC)c1C(=O)O2 | 4 (≈ 12.2 µM) | 4 (≈ 12.2 µM) | 8 (≈ 24.4 µM) | > 128 | – | – | – | – | – | – | – | – | – | – | – | – | – | – | – | – | –
CCCc1cc(O)cc2c1Oc1cc(O)c(Cl)c(CCC)c1C(=O)O2 | 8 (≈ 22.1 µM) | 4 (≈ 11 µM) | 8 (≈ 22.1 µM) | > 128 | – | – | – | – | – | – | – | – | – | – | – | – | – | – | – | – | –
CCCc1cc(O)cc2c1Oc1c(Cl)c(O)cc(CCC)c1C(=O)O2 | 8 (≈ 22.1 µM) | 8 (≈ 22.1 µM) | 16 (≈ 44.1 µM) | > 128 | 32 (≈ 11.6 µg/mL) | 64 (≈ 23.2 µg/mL) | 64 (≈ 23.2 µg/mL) | 4.19 | 64 (≈ 23.2 µg/mL) | 64 (≈ 23.2 µg/mL) | 4.19 | 32 (≈ 11.6 µg/mL) | 256 (≈ 92.9 µg/mL) | > 256 | > 256 | 256 (≈ 92.9 µg/mL) | > 256 | 256 (≈ 92.9 µg/mL) | > 256 | > 256 | pIC50 (Escherichia coli [19]): < 3.59; MIC (Escherichia coli [20]): > 256 µM; MIC (Escherichia coli [21]): > 256 µM; pIC50 (Klebsiella pneumoniae [22]): < 3.59; MIC (Klebsiella pneumoniae [23]): > 256 µM; MIC (Klebsiella pneumoniae [24]): > 256 µM; pIC50 (Klebsiella pneumoniae [25]): < 3.59; MIC (Klebsiella pneumoniae [26]): > 256 µM
CCCc1cc(O)c(Cl)c2c1C(=O)Oc1cc(O)c(Cl)c(CCC)c1O2 | 2 (≈ 5.03 µM) | 2 (≈ 5.03 µM) | 2 (≈ 5.03 µM) | > 128 | – | – | – | – | – | – | – | – | – | – | – | – | – | – | – | – | –
CCCc1cc(O)cc2c1Oc1c(Cl)c(O)c(Cl)c(CCC)c1C(=O)O2 | 4 (≈ 10.1 µM) | 2 (≈ 5.03 µM) | 4 (≈ 10.1 µM) | > 128 | 64 (≈ 25.4 µg/mL) | 32 (≈ 12.7 µg/mL) | 64 (≈ 25.4 µg/mL) | 3.89 | 128 (≈ 50.8 µg/mL) | 32 (≈ 12.7 µg/mL) | 4.49 | 64 (≈ 25.4 µg/mL) | > 256 | > 256 | > 256 | > 256 | > 256 | > 256 | > 256 | > 256 | pIC50 (Escherichia coli [19]): < 3.59; MIC (Escherichia coli [20]): > 256 µM; MIC (Escherichia coli [21]): > 256 µM; pIC50 (Klebsiella pneumoniae [22]): < 3.59; MIC (Klebsiella pneumoniae [23]): > 256 µM; MIC (Klebsiella pneumoniae [24]): > 256 µM; pIC50 (Klebsiella pneumoniae [25]): < 3.59; MIC (Klebsiella pneumoniae [26]): > 256 µM
CCCc1c(Cl)c(O)cc2c1Oc1c(Cl)c(O)c(Cl)c(CCC)c1C(=O)O2 | 2 (≈ 4.63 µM) | 1 (≈ 2.32 µM) | 0.5 (≈ 1.16 µM) | > 128 | 4 (≈ 1.73 µg/mL) | 4 (≈ 1.73 µg/mL) | 4 (≈ 1.73 µg/mL) | 5.40 | 4 (≈ 1.73 µg/mL) | 2 (≈ 0.863 µg/mL) | 5.40 | 4 (≈ 1.73 µg/mL) | 32 (≈ 13.8 µg/mL) | 32 (≈ 13.8 µg/mL) | 32 (≈ 13.8 µg/mL) | 32 (≈ 13.8 µg/mL) | 32 (≈ 13.8 µg/mL) | 16 (≈ 6.91 µg/mL) | 32 (≈ 13.8 µg/mL) | > 256 | pIC50 (Escherichia coli [19]): < 3.59; MIC (Escherichia coli [20]): > 256 µM; MIC (Escherichia coli [21]): > 256 µM; pIC50 (Klebsiella pneumoniae [22]): < 3.59; MIC (Klebsiella pneumoniae [23]): > 256 µM; MIC (Klebsiella pneumoniae [24]): > 256 µM; pIC50 (Klebsiella pneumoniae [25]): < 3.59; MIC (Klebsiella pneumoniae [26]): > 256 µM
CCCc1c(Cl)c(OC)cc2c1Oc1c(Cl)c(O)c(Cl)c(CCC)c1C(=O)O2 | 0.5 (≈ 1.12 µM) | 0.5 (≈ 1.12 µM) | 0.25 (≈ 0.561 µM) | > 128 | 8 (≈ 3.57 µg/mL) | 4 (≈ 1.78 µg/mL) | 4 (≈ 1.78 µg/mL) | 5.40 | 8 (≈ 3.57 µg/mL) | 4 (≈ 1.78 µg/mL) | 5.40 | 2 (≈ 0.891 µg/mL) | 128 (≈ 57.1 µg/mL) | > 256 | > 256 | 256 (≈ 114 µg/mL) | 256 (≈ 114 µg/mL) | 16 (≈ 7.13 µg/mL) | 256 (≈ 114 µg/mL) | > 256 | pIC50 (Escherichia coli [19]): < 3.59; MIC (Escherichia coli [20]): > 256 µM; MIC (Escherichia coli [21]): > 256 µM; pIC50 (Klebsiella pneumoniae [22]): < 3.59; MIC (Klebsiella pneumoniae [23]): > 256 µM; MIC (Klebsiella pneumoniae [24]): > 256 µM; pIC50 (Klebsiella pneumoniae [25]): < 3.59; MIC (Klebsiella pneumoniae [26]): > 256 µM; Ratio IC50 (Staphylococcus aureus [27]): 2
CCCc1cc(O)c(Cl)c2c1Oc1c(Cl)c(O)c(Cl)c(CCC)c1C(=O)O2 | 4 (≈ 9.27 µM) | 1 (≈ 2.32 µM) | 1 (≈ 2.32 µM) | > 128 | 4 (≈ 1.73 µg/mL) | 4 (≈ 1.73 µg/mL) | 4 (≈ 1.73 µg/mL) | 5.10 | 8 (≈ 3.45 µg/mL) | 4 (≈ 1.73 µg/mL) | 5.70 | 4 (≈ 1.73 µg/mL) | 16 (≈ 6.91 µg/mL) | 16 (≈ 6.91 µg/mL) | 16 (≈ 6.91 µg/mL) | 16 (≈ 6.91 µg/mL) | 16 (≈ 6.91 µg/mL) | 16 (≈ 6.91 µg/mL) | 32 (≈ 13.8 µg/mL) | 64 (≈ 27.6 µg/mL) | pIC50 (Escherichia coli [19]): 4.19; MIC (Escherichia coli [20]): 64 µM (≈ 27.6 µg/mL); MIC (Escherichia coli [21]): 64 µM (≈ 27.6 µg/mL); pIC50 (Klebsiella pneumoniae [22]): 3.59; MIC (Klebsiella pneumoniae [23]): 256 µM (≈ 111 µg/mL); MIC (Klebsiella pneumoniae [24]): 256 µM (≈ 111 µg/mL); pIC50 (Klebsiella pneumoniae [25]): 3.89; MIC (Klebsiella pneumoniae [26]): 128 µM (≈ 55.3 µg/mL); Ratio IC50 (Staphylococcus aureus [27]): 2
